In test [1] the test system is POAAN. The test is described as follows: Herbicidal post-emergence action 1b (twin sowing, 1280 g/ha). The format is in vivo, Poa annua. Conditions: dosage 1280 g/ha, visual rating about 3 weeks after treatment. The procedure, abridged: (§1)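 Twin-sown mono- and dicot weeds in sandy loam were sprayed post-emergence at the one-leaf stage, 2–3 weeks after sowing, with WP or EC formulations in water plus 0.5% additive at 600 L/ha. After about 3 weeks in the greenhouse, activity was rated visually against untreated controls (0% = like control, 100% = plants dead).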

Test [2] concerns DIGSA. Described as above. The format is in vivo, Digitaria sanguinalis. The conditions noted are these: dosage 1280 g/ha, visual rating about 3 weeks after treatment. Here is the method: (§2) [table] b) Seeds of mono- and dicotyledonous weed plants are placed in plastic pots in sandy loam soil (twin sowing with one species each of mono- or dicotyledonous weed plants per pot), covered with soil and cultivated in a greenhouse under controlled growth conditions. 2 to 3 weeks after sowing, the test plants are treated at the one-leaf stage. The compounds of the invention, formulated in the form of wettable powders (WP) or as emulsion concentrates (EC), are applied to the green parts of the plants as aqueous suspension or emulsion with addition of 0.5% additive at a water application rate equivalent to 600 litres per hectare. After the test plants have been kept in the greenhouse under optimum growth conditions for about 3 weeks, the activity of the preparations is rated visually in comparison to untreated controls. For example, 100% activity=the plants have died, 0% activity=like control plants. Tables A16 to A21 below show the effects of selected compounds of the general formula (I) according to Tables 1 and 2 on various harmful plants and at an application rate corresponding to 1280 g/ha, which were obtained by the experimental procedure mentioned above.

Another test deals with ABUTH. The test is described as above. Format: in vivo, Abutilon theophrasti. The conditions noted are these: dosage 1280 g/ha, visual rating about 3 weeks after treatment. Here is the method: as §2
Test [3] has as its system MATIN. The description is as above. The format is in vivo, Matricaria inodora. Conditions: dosage 1280 g/ha, visual rating about 3 weeks after treatment. The procedure, abridged:
as §1

The test system of test [4] is STEME. Described as above. Format: in vivo, Stellaria media. Conditions: dosage 1280 g/ha, visual rating about 3 weeks after treatment. Here is the method:
as §2

In test [5] the test system is POAAN. Description: Herbicidal pre-emergence action 2b (doubly sown, 1280 g/ha). Format: in vivo, Poa annua. The conditions noted are these: doubly sown pots, dosage 1280 g/ha, visual scoring after about 3 weeks. The procedure, abridged:
(§3)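 Weed seeds sown in sandy loam, two species per pot, covered with soil; compounds as WP or EC applied to soil surface as aqueous suspension/emulsion with 0.5% additive at 600 L/ha water. Greenhouse growth; visual % activity vs untreated controls after about 3 weeks (100% = dead, 0% = like control).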

For test [6], the system named is DIGSA. The test is described as above. The format is in vivo, Digitaria sanguinalis. The conditions noted are these: doubly sown pots, dosage 1280 g/ha, visual scoring after about 3 weeks. Summed up: as §3
Test [7] relates to ECHCG. The test is described as above. The format is in vivo, Echinochloa crus-galli. Conditions: doubly sown pots, dosage 1280 g/ha, visual scoring after about 3 weeks. Summed up: as §3
For the next test, the system named is AMARE. The description is as above. The conditions noted are these: doubly sown pots, dosage 1280 g/ha, visual scoring after about 3 weeks. Format: in vivo, Amaranthus retroflexus. The procedure, abridged: as §3
Test [8] concerns MATIN. Described as above. The conditions noted are these: doubly sown pots, dosage 1280 g/ha, visual scoring after about 3 weeks. Format: in vivo, Matricaria inodora. Summed up:
as §3

For test [9], the system named is STEME. Described as above. The format is in vivo, Stellaria media. Conditions: doubly sown pots, dosage 1280 g/ha, visual scoring after about 3 weeks. Summed up: as §3
The test system of test [10] is ECHCG. The test is described as follows: Herbicidal post-emergence action 1b (twin sowing, 1280 g/ha). Format: in vivo, Echinochloa crus-galli. The conditions noted are these: dosage 1280 g/ha, visual rating about 3 weeks after treatment. Here is the method:
as §2

Here are results for four compounds from US20230167088A1, “1-PYRAZINYLPYRAZOLYL-3-OXYALKYL ACIDS AND THEIR DERIVATIVES, AND THEIR USE FOR CONTROL OF UNDESIRED PLANT GROWTH” (BAYER AKTIENGESELLSCHAFT, priority 2020, published 2023).

With `COC(=O)[C@H](C)Oc1nn(-c2cnccn2)c(-c2ccc(F)nc2)c1Br` [Example I-18], the “Post-emergence action at 1280 g/ha against POAAN in %” value with POAAN [1] came out at 100%. Also, the “Post-emergence action at 1280 g/ha against DIGSA in %” value with DIGSA [2] was determined as 100%. Further, in the test on ABUTH, the “Post-emergence action at 1280 g/ha against ABUTH in %” value is 90%. In the test on MATIN [3], the “Post-emergence action at 1280 g/ha against MATIN in %” value worked out at 90%. Also, in the test with STEME [4], the “Post-emergence action at 1280 g/ha against STEME in %” value was 100%. For the same compound, the “Pre-emergence action at 1280 g/ha against POAAN in %” value in the test with POAAN [5] stood at 100%. Besides, the “Pre-emergence action at 1280 g/ha against DIGSA in %” value in the test with DIGSA [6] is listed as 100%. In addition, the “Pre-emergence action at 1280 g/ha against ECHCG in %” value with ECHCG [7] was found to be 100%. Also, in the test on AMARE, the “Pre-emergence action at 1280 g/ha against AMARE in %” value is given as 100%. In addition, in the test on MATIN [8], the “Pre-emergence action at 1280 g/ha against MATIN in %” value came out at 90%. Further, the “Pre-emergence action at 1280 g/ha against STEME in %” value in the test on STEME [9] is reported as 100%.

On to `CCOC(=O)COc1nn(-c2cnccn2)c(-c2ccc(F)nc2)c1C(F)(F)F` [Example I-66], for which, in the test on POAAN [1], the “Post-emergence action at 1280 g/ha against POAAN in %” value is 90%. Moreover, the “Post-emergence action at 1280 g/ha against ABUTH in %” value in the test on ABUTH is reported as 90%. In addition, in the test with MATIN [3], the “Post-emergence action at 1280 g/ha against MATIN in %” value turned out to be 90%. The “Pre-emergence action at 1280 g/ha against POAAN in %” value with POAAN [5] is recorded as 100%. In addition, in the test with DIGSA [6], the “Pre-emergence action at 1280 g/ha against DIGSA in %” value turned out to be 100%. Besides, the “Pre-emergence action at 1280 g/ha against ECHCG in %” value with ECHCG [7] came to 90%. Moreover, the “Pre-emergence action at 1280 g/ha against AMARE in %” value in the test with AMARE is recorded as 100%. Further, the “Pre-emergence action at 1280 g/ha against MATIN in %” value in the test on MATIN [8] turned out to be 100%. The “Pre-emergence action at 1280 g/ha against STEME in %” value in the test with STEME [9] came out at 100%.

In the case of `CC(C)=NOC(=O)COc1nn(-c2cnccn2)c(-c2ccc(F)nc2)c1Br` [Example I-69], the “Post-emergence action at 1280 g/ha against POAAN in %” value in the test with POAAN [1] was determined as 90%. Moreover, the “Post-emergence action at 1280 g/ha against DIGSA in %” value in the test with DIGSA [2] is 90%. Also, the “Post-emergence action at 1280 g/ha against ECHCG in %” value with ECHCG [10] is reported as 90%. In addition, the “Post-emergence action at 1280 g/ha against MATIN in %” value in the test on MATIN [3] is given as 90%. Also, the “Post-emergence action at 1280 g/ha against STEME in %” value in the test with STEME [4] was 90%. The “Pre-emergence action at 1280 g/ha against POAAN in %” value in the test with POAAN [5] is listed as 100%. For the same compound, the “Pre-emergence action at 1280 g/ha against DIGSA in %” value in the test on DIGSA [6] is 100%. The “Pre-emergence action at 1280 g/ha against ECHCG in %” value in the test on ECHCG [7] worked out at 100%. Besides, in the test with AMARE, the “Pre-emergence action at 1280 g/ha against AMARE in %” value was found to be 100%. The “Pre-emergence action at 1280 g/ha against MATIN in %” value in the test on MATIN [8] worked out at 100%. In addition, the “Pre-emergence action at 1280 g/ha against STEME in %” value with STEME [9] is given as 100%.

`COC(=O)[C@@H](C)Oc1nn(-c2cnccn2)c(-c2cccnc2)c1Br` [Example I-38]: the “Post-emergence action at 1280 g/ha against POAAN in %” value with POAAN [1] is recorded as 100%. The “Post-emergence action at 1280 g/ha against DIGSA in %” value in the test with DIGSA [2] worked out at 90%. For the same compound, the “Post-emergence action at 1280 g/ha against ECHCG in %” value with ECHCG [10] came out at 100%. Also, the “Post-emergence action at 1280 g/ha against MATIN in %” value with MATIN [3] is recorded as 90%. In the test with STEME [4], the “Post-emergence action at 1280 g/ha against STEME in %” value worked out at 100%. Moreover, the “Pre-emergence action at 1280 g/ha against POAAN in %” value in the test on POAAN [5] turned out to be 100%. For the same compound, in the test with DIGSA [6], the “Pre-emergence action at 1280 g/ha against DIGSA in %” value came out at 100%. Further, the “Pre-emergence action at 1280 g/ha against ECHCG in %” value in the test with ECHCG [7] is given as 100%. Further, the “Pre-emergence action at 1280 g/ha against AMARE in %” value with AMARE is 100%. In the test with MATIN [8], the “Pre-emergence action at 1280 g/ha against MATIN in %” value amounted to 100%. Further, the “Pre-emergence action at 1280 g/ha against STEME in %” value with STEME [9] is listed as 100%.
